# According to patent publication US20110086828A1, “TREATMENT OF ALCOHOL ABUSE AND […] MODULATORS OF NE[…] SITES ON GABAA RECEPTORS” (Board of Supervisors of Louisiana State University and …, priority 2009, published 2011):
# Test system: male Long-Evans hooded rats
# Test: two-bottle ethanol preference test (ethanol intake) after i.p. neuroactive steroid
# Type: in vivo, rat
# Conditions: for ethanol intake vs baseline / volume of ethanol intake vs baseline: 10 and 56 mg/kg i.p. 15 min before 30-min session; for water intake: 10 and 56 mg/kg i.p.; for effect on ethanol intake (oral self administration of ethanol): summary statement, twenty-two male Long-Evans hooded rats
# Experimental: Upon arrival, these subjects were housed 4 per cage and provided a diet of standard rodent chow ad libitum (Rodent Diet 5001, PMI Inc., St. Louis, Mo., USA) until postnatal day (hereinafter “PD”) 70. From PD 71 forward, the subjects were housed individually and maintained at 95% of their free-feeding weight during which a saccharin-fading procedure was conducted. Water was provided ad libitum in the home cage except during the experimental sessions. The home cage was made of polypropylene plastic and contained hardwood chip bedding. The colony room was maintained at 21±2 C.° with 50±10% relative humidity on a 14L:10D (light/dark) cycle (lights on 06:00 hours (h); lights off 20:00 h). Following training under the saccharin-fading procedure, the subjects were returned to ad libitum feeding conditions for 73 (minimum) to 89 (maximum) days during which an ethanol concentration-effect curve was established. After this curve was obtained, subjects were maintained at 95% of their free-feeding weight for the rest of the study. Ethanol preference training and experimental sessions were conducted daily during the light cycle between the hours of 12:00 h and 14:00 h. Subjects used in these studies were maintained in accordance with the Institutional Animal Care and Use Committee, Louisiana State University Health Sciences Center, and in compliance with the guidelines of the National Institute of Health Guide for Care and Use of Laboratory Animal Resources (publication No. 85-23, revised 1996).
# While still housed 4 per cage, subjects were randomly divided into two groups, a group that received ethanol between PD 35 and 63 (adolescent ethanol group) and a group that received saline during the same postnatal period (adolescent saline group). The adolescent ethanol group (n=11) received 2 g/kg of ethanol intraperitoneally (hereinafter “i.p.”) every other day, whereas the adolescent saline group (n=11) received an equal volume of saline every other day, for a total of 15 injections.
# Subjects were trained to consume ethanol orally using a modified saccharin/ethanol fading procedure (Samson, 1986; Leonard et al., 2006) starting on PD 75. Prior to each daily training session, animals were weighed and then returned to their home cage. Water bottles were removed and replaced for 30 min with 50-ml plastic centrifuge tubes containing a saccharin/ethanol solution and fitted with a rubber stopper and metal sipper tube. At the end of the 30-min session, the drinking tubes were removed, water bottles were replaced, and the volume of the solution consumed was determined by weighing the tubes (i.e., [(weight prior to the session—weight after the session)-0.4 ml)]. All solutions were prepared fresh daily. Rats initially received a 0.2% sodium saccharin(weight (g of sodium saccharin)/volume (100 mL solution))/0% ethanol (volume (mL of alcohol)/volume (100 mL solution)) solution that was gradually replaced until a solution of 0% sodium saccharin/10% ethanol was achieved. After a subject acquired stable saccharin/ethanol intake (±20% of the mean for 3 consecutive days) or a maximum of 8 days elapsed, the next sodiumsaccharin/ethanol solution was presented. Solutions were presented in the following order: 0.2% saccharin/0% ethanol, 0.15% saccharin/0.5% ethanol, 0.125% saccharin/1% ethanol, 0.1% saccharin/2% ethanol, 0.05% saccharin/5% ethanol, 0.01% saccharin/8% ethanol, and 0% saccharin/10% ethanol. Training, which took 40-57 sessions, and all subsequent testing were conducted 7 days per week.
# After a stable baseline of ethanol drinking was established with a 10% ethanol solution, a concentration-effect curve for ethanol and water consumption was established using the standard two-bottle preference test. During these tests, subjects were allowed simultaneous access to two drinking tubes daily for 60 min in their home cage. […]
SMILES,ethanol intake vs baseline (18% ethanol),volume of ethanol intake vs baseline (18% ethanol),water intake (30-min preference session),"ethanol intake volume (56 mg/kg i.p., every ethanol concentration except the 18% concentration)","ethanol intake, first day of injection (100 mg/kg i.p. (highest dose), 18% ethanol, p<0.001, n=22)","shift of ethanol concentration-effect curve (10, 32 and 56 mg/kg i.p. with ethanol 3.2-32%, p<0.05)","ethanol intake at varying ethanol concentrations (10 and 32 mg/kg i.p., both doses comparable)","ethanol intake vs vehicle, after stability criterion met (10 to 100 mg/kg i.p., 18% ethanol, p<0.05, n=22)",effect on ethanol intake (oral self administration of ethanol),"intake of 18% ethanol solution vs vehicle, after stability criterion met (10 mg/kg i.p., Holm-Sidak post-hoc, n=22)",sedative effects (highest dose of pregnanolone),"intake of 18% ethanol solution, first day of injection, comparison between doses (pregnanolone 3.2 mg/kg i.p. vs 1.8, 5.6 and 10 mg/kg, p<0.05)","intake of 18% ethanol solution vs vehicle, first day of injection (pregnanolone 1-10 mg/kg i.p., 30-min preference session, n=22)"
"CC(=O)OC1CC[C@@]2(C)C(=CC(=O)[C@@H]3[C@@H]2CC[C@]2(C)C(=O)CC[C@@H]32)C1 (some centres unmarked) [7-keto-DHEA, 3-acetyl-7-oxo-dehydroepiandrosterone]",dose-dependent decreases,dose-dependent decreases,not significantly different,–,–,–,–,–,–,–,–,–,–
"C[C@]12CC[C@H](O)CC1=CC[C@@H]1[C@@H]2CC[C@]2(C)C(=O)CC[C@@H]12 [DHEA, 5-androstene-3β-ol-17-one]",dose-dependent decreases,dose-dependent decreases,not significantly different,below 1 ml,significant effect,shifted downward significantly,decreased the intake of ethanol concentrations ranging from 3.2 and 18%,significantly decreased intake,markedly reduce oral self administration of ethanol,–,–,–,–
"CC(=O)[C@H]1CC[C@H]2[C@@H]3CC[C@@H]4C[C@H](O)CC[C@]4(C)[C@H]3CC[C@]12C [pregnanolone, 5β-pregnan-3α-ol-20-one]",–,–,–,–,–,–,–,–,no apparent effect on ethanol intake,significantly differed from vehicle,produced sedative effects,significantly higher,none of the effects of dose were different from vehicle
